In patent publication US8722704B2, “Modulators of ATP-binding cassette-transporters” (Vertex Pharmaceuticals Incorporated, priority 2007, dated 2014):

Molecular target: T1, ΔF508-CFTR (Homo sapiens, UniProt P13569, DEL508-508)
T1 construct: expressed in transfected cells
Test: Assays for detecting and measuring ΔF508-CFTR correction properties (membrane potential optical assay; Table 3 does not say which assay)
Type: cell-based
Details: IC50/EC50 bins; NIH3T3 mouse fibroblasts stably expressing ΔF508-CFTR; read-out: Binned EC50
Text: The optical membrane potential assay utilized voltage-sensitive FRET sensors described by Gonzalez and Tsien (See Gonzalez, J. E. and R. Y. Tsien (1995) “Voltage sensing by fluorescence resonance energy transfer in single cells” Biophys J 69(4): 1272-80, and Gonzalez, J. E. and R. Y. Tsien (1997) “Improved indicators of cell membrane potential that use fluorescence resonance energy transfer” Chem Biol 4(4): 269-77) in combination with instrumentation for measuring fluorescence changes such as the Voltage/Ion Probe Reader (VIPR) (See Gonzalez, J. E., K. Oades, et al. (1999) “Cell-based assays and instrumentation for screening ion-channel targets” Drug Discov Today 4(9): 431-439).
These voltage sensitive assays are based on the change in fluorescence resonant energy transfer (FRET) between the membrane-soluble, voltage-sensitive dye, DiSBAC2(3), and a fluorescent phospholipid, CC2-DMPE, which is attached to the outer leaflet of the plasma membrane and acts as a FRET donor. Changes in membrane potential (Vm) cause the negatively charged DiSBAC2(3) to redistribute across the plasma membrane and the amount of energy transfer from CC2-DMPE changes accordingly. The changes in fluorescence emission were monitored using VIPR™ II, which is an integrated liquid handler and fluorescent detector designed to conduct cell-based screens in 96- or 384-well microtiter plates.
To identify small molecules that correct the trafficking defect associated with ΔF508-CFTR; a single-addition HTS assay format was developed. The cells were incubated in serum-free medium for 16 hrs at 37° C. in the presence or absence (negative control) of test compound. As a positive control, cells plated in 384-well plates were incubated for 16 hrs at 27° C. to “temperature-correct” ΔF508-CFTR. The cells were subsequently rinsed 3× with Krebs Ringers solution and loaded with the voltage-sensitive dyes. To activate ΔF508-CFTR, 10 μM forskolin and the CFTR potentiator, genistein (20 μM), were added along with Cl^−-free medium to each well. The addition of Cl^−-free medium promoted Cl^− efflux in response to ΔF508-CFTR activation and the resulting membrane depolarization was optically monitored using the FRET-based voltage-sensor dyes. […]
3. Solutions • Bath Solution #1: (in mM) NaCl 160, KCl 4.5, CaCl2 2, MgCl2 1, HEPES 10, pH 7.4 with NaOH. • Chloride-free bath solution: Chloride salts in Bath Solution #1 are substituted with gluconate salts. • CC2-DMPE: Prepared as a 10 mM stock solution in DMSO and stored at −20° C. • DiSBAC2(3): Prepared as a 10 mM stock in DMSO and stored at −20° C.
NIH3T3 mouse fibroblasts stably expressing ΔF508-CFTR are used for optical measurements of membrane potential. The cells are maintained at 37° C. in 5% CO2 and 90% humidity in Dulbecco's modified Eagle's medium supplemented with 2 mM glutamine, 10% fetal bovine serum, 1×NEAA, β-ME, 1×pen/strep, and 25 mM HEPES in 175 cm^2 culture flasks. For all optical assays, the cells were seeded at 30,000/well in 384-well matrigel-coated plates and cultured for 2 hrs at 37° C. before culturing at 27° C. for 24 hrs for the potentiator assay. For the correction assays, the cells are cultured at 27° C. or 37° C. with and without compounds for 16-24 hours.

T1 sequence (P13569 with tags, fused parts or gaps DEL508-508): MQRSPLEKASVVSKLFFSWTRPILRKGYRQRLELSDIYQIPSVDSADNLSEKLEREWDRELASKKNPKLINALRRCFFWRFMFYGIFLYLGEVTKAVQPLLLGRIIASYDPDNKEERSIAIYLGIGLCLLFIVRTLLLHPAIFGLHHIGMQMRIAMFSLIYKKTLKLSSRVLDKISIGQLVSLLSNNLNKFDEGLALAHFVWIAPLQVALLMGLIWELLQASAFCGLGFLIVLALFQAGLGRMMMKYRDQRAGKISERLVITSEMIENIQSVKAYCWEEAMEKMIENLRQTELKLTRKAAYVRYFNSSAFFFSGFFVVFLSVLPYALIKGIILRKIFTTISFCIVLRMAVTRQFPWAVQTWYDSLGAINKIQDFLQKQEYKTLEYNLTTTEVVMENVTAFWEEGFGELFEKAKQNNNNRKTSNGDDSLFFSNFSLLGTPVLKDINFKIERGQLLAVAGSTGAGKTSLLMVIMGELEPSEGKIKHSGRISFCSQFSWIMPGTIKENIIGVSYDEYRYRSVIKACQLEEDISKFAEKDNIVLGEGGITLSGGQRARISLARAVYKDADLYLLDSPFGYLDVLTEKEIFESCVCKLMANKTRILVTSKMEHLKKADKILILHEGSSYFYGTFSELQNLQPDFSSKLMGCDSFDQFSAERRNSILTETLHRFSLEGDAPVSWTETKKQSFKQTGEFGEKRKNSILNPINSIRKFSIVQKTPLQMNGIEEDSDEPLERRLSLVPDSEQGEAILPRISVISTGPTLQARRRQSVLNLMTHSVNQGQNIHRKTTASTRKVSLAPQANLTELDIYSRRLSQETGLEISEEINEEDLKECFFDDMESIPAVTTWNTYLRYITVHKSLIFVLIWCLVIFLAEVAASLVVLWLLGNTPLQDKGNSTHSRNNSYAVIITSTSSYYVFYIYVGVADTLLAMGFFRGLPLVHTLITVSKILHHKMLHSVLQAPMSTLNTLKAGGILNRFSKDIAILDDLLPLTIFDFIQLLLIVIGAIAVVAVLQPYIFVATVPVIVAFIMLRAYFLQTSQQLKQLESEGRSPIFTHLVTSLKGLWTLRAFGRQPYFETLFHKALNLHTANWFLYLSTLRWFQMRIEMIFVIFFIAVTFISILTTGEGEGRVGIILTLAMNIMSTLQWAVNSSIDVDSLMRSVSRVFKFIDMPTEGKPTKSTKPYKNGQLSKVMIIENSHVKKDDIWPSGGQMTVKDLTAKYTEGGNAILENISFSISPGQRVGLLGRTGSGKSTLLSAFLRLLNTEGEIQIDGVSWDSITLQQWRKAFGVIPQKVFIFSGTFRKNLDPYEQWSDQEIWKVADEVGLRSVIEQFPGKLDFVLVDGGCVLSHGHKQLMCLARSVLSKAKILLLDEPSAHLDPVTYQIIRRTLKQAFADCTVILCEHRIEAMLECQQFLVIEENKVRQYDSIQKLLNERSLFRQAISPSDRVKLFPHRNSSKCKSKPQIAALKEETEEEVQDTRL

**Q.** For CN1CCN(C(=O)c2ccc(-c3nc(NC(=O)C4(c5ccc6c(c5)OC(F)(F)O6)CC4)cc4ccccc34)cc2)CC1 [Compound 24, 1-(2,2-difluorobenzo[d][1,3]dioxol-5-yl)-N-(1-(4-(4-methylpiperazine-1-carbonyl)phenyl)isoquinolin-3-yl)cyclopropanecarboxamide], which EC50 is on record?
**A.** ≤ 2000 nM
